How the values were obtained:
[1] = target: T1, Tyrosine-protein kinase JAK3 (Homo sapiens, UniProt P52333)
T1 sequence (P52333 whole entry): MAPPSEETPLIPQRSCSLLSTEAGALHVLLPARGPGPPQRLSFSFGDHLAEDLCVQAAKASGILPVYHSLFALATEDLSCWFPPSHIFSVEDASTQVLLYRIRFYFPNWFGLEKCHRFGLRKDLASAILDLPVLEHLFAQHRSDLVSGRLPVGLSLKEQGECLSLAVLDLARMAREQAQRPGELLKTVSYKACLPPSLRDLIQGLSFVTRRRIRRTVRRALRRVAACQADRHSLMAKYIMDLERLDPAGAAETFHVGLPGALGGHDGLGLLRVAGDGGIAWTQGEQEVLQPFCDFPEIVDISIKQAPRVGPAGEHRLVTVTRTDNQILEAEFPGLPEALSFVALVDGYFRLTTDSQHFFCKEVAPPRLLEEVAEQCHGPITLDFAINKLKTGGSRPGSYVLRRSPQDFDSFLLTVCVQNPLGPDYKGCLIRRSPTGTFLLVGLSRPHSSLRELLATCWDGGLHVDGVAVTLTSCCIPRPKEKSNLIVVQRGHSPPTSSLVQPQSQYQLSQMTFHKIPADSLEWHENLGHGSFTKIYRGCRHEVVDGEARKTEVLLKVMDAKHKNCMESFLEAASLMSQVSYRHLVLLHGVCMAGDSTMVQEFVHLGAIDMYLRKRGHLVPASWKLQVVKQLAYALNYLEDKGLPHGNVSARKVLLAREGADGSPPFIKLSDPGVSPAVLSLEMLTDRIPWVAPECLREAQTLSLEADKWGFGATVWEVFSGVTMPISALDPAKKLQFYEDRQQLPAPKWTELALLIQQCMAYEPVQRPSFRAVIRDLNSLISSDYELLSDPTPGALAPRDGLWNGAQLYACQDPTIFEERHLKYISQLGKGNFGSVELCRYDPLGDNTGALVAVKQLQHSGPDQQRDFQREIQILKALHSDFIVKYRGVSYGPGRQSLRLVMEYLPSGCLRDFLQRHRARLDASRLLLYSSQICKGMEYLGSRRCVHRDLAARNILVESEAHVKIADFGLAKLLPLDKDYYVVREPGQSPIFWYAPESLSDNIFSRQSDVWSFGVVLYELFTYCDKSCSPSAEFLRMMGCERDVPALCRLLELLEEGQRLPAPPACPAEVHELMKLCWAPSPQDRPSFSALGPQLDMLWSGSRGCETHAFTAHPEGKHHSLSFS
Description: Inhibition of JAK3 (unknown origin) in presence of ATP by radiometric assay

[2] = target: Tyrosine-protein kinase BTK (Homo sapiens, UniProt Q06187); experiment: Inhibition of BTK (unknown origin) by trFRET binding assay
[3] = target: T1, Tyrosine-protein kinase JAK3; experiment: Inhibition of JAK3 (unknown origin) by trFRET binding assay
[4] = target: Vascular endothelial growth factor receptor 1 (Homo sapiens, UniProt P17948); experiment: Inhibition of FLT1 (unknown origin) by trFRET binding assay
Vascular endothelial growth factor receptor 1, sequence (P17948 whole entry): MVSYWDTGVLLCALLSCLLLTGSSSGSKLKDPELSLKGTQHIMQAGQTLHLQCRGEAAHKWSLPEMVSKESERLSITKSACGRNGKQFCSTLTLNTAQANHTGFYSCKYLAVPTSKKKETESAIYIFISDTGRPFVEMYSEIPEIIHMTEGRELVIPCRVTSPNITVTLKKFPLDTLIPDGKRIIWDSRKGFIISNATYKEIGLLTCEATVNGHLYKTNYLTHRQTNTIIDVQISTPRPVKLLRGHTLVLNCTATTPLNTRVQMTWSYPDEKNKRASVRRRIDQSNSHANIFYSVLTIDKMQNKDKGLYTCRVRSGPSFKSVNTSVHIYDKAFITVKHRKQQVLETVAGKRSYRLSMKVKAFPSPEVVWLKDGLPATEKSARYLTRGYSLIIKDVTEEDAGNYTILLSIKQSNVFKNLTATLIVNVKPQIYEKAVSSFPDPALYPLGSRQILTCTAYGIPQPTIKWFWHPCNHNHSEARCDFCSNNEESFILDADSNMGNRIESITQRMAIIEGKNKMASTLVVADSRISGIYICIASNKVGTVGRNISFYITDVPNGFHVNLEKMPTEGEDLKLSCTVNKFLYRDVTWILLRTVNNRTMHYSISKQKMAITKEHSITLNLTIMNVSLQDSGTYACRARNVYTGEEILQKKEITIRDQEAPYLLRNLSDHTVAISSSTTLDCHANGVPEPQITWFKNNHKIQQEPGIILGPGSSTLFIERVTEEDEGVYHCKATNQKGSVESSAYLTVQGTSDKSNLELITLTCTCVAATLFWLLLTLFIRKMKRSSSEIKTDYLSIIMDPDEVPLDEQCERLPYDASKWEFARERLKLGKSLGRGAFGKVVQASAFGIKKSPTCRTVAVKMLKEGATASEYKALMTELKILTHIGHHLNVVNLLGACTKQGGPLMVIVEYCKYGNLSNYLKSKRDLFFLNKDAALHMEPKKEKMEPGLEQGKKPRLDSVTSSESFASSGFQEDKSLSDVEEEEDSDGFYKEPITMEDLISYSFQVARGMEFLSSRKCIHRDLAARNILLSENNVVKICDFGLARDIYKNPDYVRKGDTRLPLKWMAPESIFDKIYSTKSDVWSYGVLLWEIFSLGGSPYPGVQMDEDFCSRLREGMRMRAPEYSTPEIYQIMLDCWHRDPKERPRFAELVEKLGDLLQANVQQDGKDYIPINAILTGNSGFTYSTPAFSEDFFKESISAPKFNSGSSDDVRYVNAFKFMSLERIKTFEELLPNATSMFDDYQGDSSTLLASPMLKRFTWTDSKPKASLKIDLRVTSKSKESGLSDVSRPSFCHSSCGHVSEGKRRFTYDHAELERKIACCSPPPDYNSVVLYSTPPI

[5] = target: Tyrosine-protein kinase Fyn (Homo sapiens, UniProt P06241); experiment: Inhibition of FYN (unknown origin) by trFRET binding assay
Tyrosine-protein kinase Fyn, sequence (P06241 whole entry): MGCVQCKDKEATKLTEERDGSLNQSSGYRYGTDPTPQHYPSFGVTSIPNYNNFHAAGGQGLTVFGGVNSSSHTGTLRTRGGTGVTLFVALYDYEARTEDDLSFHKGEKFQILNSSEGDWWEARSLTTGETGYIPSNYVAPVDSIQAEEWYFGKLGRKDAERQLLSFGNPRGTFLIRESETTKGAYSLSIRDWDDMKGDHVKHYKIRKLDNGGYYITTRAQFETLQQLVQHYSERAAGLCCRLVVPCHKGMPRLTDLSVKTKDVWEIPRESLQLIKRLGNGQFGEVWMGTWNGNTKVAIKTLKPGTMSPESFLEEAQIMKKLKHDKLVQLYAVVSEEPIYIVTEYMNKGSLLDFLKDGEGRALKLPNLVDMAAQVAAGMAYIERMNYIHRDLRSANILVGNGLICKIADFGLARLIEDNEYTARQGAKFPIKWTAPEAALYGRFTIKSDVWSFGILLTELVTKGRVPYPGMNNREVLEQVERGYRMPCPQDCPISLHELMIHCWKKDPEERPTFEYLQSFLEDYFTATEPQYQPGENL

[6] = target: Vascular endothelial growth factor receptor 2 (Homo sapiens, UniProt P35968); experiment: Inhibition of KDR (unknown origin) by trFRET binding assay
Vascular endothelial growth factor receptor 2, sequence (P35968 whole entry): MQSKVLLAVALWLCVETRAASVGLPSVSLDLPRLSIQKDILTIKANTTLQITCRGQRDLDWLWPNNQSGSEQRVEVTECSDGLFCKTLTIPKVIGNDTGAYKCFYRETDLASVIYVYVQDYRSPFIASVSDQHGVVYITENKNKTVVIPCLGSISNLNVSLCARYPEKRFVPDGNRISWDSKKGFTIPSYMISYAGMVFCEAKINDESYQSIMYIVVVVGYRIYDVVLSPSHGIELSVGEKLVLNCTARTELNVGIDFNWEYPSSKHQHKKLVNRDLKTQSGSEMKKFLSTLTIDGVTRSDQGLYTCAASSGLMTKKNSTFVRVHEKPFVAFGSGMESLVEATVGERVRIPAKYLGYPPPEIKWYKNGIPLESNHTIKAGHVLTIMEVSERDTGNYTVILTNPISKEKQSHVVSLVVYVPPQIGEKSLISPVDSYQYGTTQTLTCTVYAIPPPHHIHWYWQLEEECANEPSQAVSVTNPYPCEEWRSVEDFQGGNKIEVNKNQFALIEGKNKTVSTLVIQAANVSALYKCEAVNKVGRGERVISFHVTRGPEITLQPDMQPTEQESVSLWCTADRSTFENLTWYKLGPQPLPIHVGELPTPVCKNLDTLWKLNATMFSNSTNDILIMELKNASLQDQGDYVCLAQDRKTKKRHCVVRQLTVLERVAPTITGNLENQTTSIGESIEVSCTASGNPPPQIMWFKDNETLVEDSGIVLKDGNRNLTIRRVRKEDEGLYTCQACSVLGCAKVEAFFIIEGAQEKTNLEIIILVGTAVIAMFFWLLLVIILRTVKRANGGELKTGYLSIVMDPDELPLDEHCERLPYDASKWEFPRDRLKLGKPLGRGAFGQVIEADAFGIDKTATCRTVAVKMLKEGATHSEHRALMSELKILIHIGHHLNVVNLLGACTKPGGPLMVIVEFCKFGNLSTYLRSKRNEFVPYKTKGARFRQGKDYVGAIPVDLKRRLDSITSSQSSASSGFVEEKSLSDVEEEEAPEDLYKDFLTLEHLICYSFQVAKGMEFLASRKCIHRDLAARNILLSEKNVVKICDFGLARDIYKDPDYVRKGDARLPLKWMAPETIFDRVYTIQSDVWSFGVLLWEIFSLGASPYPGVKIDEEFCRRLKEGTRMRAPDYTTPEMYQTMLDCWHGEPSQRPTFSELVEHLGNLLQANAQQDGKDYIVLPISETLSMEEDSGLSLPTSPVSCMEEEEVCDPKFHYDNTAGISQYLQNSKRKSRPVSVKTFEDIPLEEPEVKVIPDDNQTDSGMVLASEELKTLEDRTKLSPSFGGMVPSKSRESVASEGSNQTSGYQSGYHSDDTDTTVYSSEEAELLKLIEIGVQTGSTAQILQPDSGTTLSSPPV

[7] = target: Proto-oncogene tyrosine-protein kinase Src (Homo sapiens, UniProt P12931); experiment: Inhibition of SRC (unknown origin) by trFRET binding assay
[8] = target: Serine/threonine-protein kinase 16 (Homo sapiens, UniProt O75716); experiment: Inhibition of STK16 (unknown origin) by trFRET binding assay
Serine/threonine-protein kinase 16, sequence (O75716 whole entry): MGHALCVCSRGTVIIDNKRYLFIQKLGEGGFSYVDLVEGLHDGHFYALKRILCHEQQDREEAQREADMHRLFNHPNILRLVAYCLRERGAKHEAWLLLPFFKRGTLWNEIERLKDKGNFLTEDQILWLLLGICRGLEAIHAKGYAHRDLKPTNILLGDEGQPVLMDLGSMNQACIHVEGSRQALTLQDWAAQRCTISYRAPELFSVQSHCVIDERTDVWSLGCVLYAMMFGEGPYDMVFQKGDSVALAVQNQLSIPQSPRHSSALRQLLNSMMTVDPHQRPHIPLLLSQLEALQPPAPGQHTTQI

[9] = target: Cytoplasmic tyrosine-protein kinase BMX (Homo sapiens, UniProt P51813); experiment: Inhibition of BMX (unknown origin)
[10] = target: Epidermal growth factor receptor (Homo sapiens, UniProt P00533); experiment: Inhibition of EGFR (unknown origin)
[11] = target: Receptor tyrosine-protein kinase erbB-2 (Homo sapiens, UniProt P04626); experiment: Inhibition of ERB-B2 (unknown origin)
Receptor tyrosine-protein kinase erbB-2, sequence (P04626 whole entry): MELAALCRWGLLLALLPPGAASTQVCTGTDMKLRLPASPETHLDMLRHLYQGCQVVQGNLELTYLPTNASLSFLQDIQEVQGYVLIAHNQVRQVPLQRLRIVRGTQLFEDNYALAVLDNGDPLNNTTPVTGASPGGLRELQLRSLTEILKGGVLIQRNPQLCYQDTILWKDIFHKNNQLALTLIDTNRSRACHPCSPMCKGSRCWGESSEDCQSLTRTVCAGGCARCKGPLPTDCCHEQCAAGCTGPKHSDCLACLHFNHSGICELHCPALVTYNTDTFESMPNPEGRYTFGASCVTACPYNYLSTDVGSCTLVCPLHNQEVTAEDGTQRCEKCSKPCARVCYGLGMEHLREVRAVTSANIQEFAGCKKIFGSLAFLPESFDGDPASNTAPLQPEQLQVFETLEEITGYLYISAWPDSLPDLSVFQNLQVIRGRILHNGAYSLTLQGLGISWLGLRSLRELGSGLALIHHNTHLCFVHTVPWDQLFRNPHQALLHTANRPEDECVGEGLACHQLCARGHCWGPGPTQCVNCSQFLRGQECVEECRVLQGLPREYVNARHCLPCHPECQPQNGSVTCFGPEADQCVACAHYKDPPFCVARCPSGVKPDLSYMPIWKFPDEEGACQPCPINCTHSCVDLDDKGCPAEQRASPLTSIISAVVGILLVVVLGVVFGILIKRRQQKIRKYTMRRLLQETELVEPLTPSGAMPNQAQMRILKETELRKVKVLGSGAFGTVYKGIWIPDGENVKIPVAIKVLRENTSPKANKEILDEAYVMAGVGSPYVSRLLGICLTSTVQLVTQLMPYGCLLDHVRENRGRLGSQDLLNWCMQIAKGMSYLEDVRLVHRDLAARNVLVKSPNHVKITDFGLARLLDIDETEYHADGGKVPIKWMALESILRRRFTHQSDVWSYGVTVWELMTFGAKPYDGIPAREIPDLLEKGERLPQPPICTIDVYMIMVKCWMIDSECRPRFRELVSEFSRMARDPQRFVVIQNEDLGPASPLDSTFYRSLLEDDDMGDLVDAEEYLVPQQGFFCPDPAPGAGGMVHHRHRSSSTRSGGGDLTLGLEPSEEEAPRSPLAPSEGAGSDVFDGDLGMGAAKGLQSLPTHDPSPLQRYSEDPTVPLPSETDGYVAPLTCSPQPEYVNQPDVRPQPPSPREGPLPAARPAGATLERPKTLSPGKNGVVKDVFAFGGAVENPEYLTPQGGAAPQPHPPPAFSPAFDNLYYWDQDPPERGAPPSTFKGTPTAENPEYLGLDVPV

[12] = target: Tyrosine-protein kinase Tec (Homo sapiens, UniProt P42680); experiment: Inhibition of TEC (unknown origin)
[13] = target: Tyrosine-protein kinase TXK (Homo sapiens, UniProt P42681); experiment: Inhibition of TXK (unknown origin)

IC50 [1] [nM]	IC50 [2] [nM]	IC50 [3] [nM]	IC50 [4] [nM]	IC50 [5] [nM]	IC50 [6] [nM]	IC50 [7] [nM]	IC50 [8] [nM]	IC50 [9] [nM]	IC50 [10] [nM]	IC50 [11] [nM]	IC50 [12] [nM]	IC50 [13] [nM]	SMILES
20	640	300	550	660	550	980	1000	–	–	–	–	–	C=CC(=O)Nc1ccc2ncn(-c3cncc(Nc4ccccc4)n3)c2c1
–	–	–	–	–	–	–	–	2410	> 10000	2050	6930	1670	N#C/C(=C\c1cccc(-c2cccc3[nH]ncc23)c1)C(N)=O
